Values quoted from earlier work in patent US20150297661A1, “ANALGESIC COMPOSITIONS AND METHODS OF USE” (priority 2014, published 2015).

CCOC(=O)c1ccc(N)cc1 [Benzocaine]
duration of effect (after application to skin or mucosal surface): 30 to 60 min
time to peak effect after application (in contact with skin or mucosal surface): ≤ 1 min
